The values that follow are results of earlier work, collected in patent US20160199396A1 (TEVA Pharmaceutical Industries Ltd., priority 2013, published 2016).

For the series the following is noted: background statement.

For `CC(C)c1nc(CN(C)C(=O)N[C@H](C(=O)N[C@@H](Cc2ccccc2)C[C@H](O)[C@H](Cc2ccccc2)NC(=O)OCc2cncs2)C(C)C)cs1` [Ritonavir, 1,3-thiazol-5-ylmethyl N-[(2S,3S,5S)-3-hydroxy-5-[(2S)-3-methyl-2-{[methyl({[2-(propan-2-yl)-1,3-thiazol-4-yl]methyl})carbamoyl]amino}butanamido]-1,6-diphenylhexan-2-yl]carbamate], the “BCS (biopharmaceutical classification system) class” value is “class IV”.
